Data published in patent publication US9695155B2, “Herbicidal substituted pyrimidinyloxy benzene compounds” (E. I. DU PONT DE NEMOURS AND COMPANY, priority 2013, dated 2017).

Assays:
wheat = experiment: Test A preemergence; format: in vivo, Triticum aestivum
Summary of the method: (§1)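 Greenhouse pot test, loam/sand soil. Formulation: non-phytotoxic solvent mix plus surfactant. Pre: directed spray onto soil after sowing. Post: plants at 1–2 leaf, 2–10 cm. Rated visually vs untreated controls at ~10 d, 0 (no effect) to 100 (complete control).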

chickweed = experiment: Test C postemergence; format: in vivo, Stellaria media; settings: for Chickweed plant response rating / Plant response rating, Chickweed: scale 0 to 100 (0 no effect, 100 complete control); for Chickweed plant response rating: 13 to 15 days
Summary of the method: (§2)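 Plants were kept under greenhouse conditions for 13–15 days following spray. Pre-emergent application went to soil (loam–sand), post-emergent to foliage at 1–4 leaves. Evaluation: visual, percent control against untreated checks.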

pigweed = experiment: Test C preemergence; format: in vivo, Amaranthus retroflexus; settings: for Pigweed plant response rating: preemergence
Summary of the method: as §2

barnyardgrass [1] = experiment: Test C postemergence; format: in vivo, Echinochloa crus-galli; settings: for Barnyardgrass plant response rating / Plant response rating, Barnyardgrass: scale 0 to 100 (0 no effect, 100 complete control)
Summary of the method: as §2

large (Lg) crabgrass [2] = experiment: Test C postemergence; format: in vivo, Digitaria sanguinalis; settings: for Crabgrass, Large plant response rating / Plant response rating, Crabgrass, Large: scale 0 to 100 (0 no effect, 100 complete control); for Crabgrass, Large plant response rating: 13 to 15 days
Summary of the method: as §2

lambsquarters = experiment: Test C postemergence; format: in vivo, Chenopodium album
Summary of the method: as §2

wheat, winter = experiment: Test C postemergence; format: in vivo, Triticum aestivum
Summary of the method: as §2

large (Lg) crabgrass [3] = experiment: Test C preemergence; format: in vivo, Digitaria sanguinalis; settings: for Crabgrass, Large plant response rating: preemergence; for Plant response rating, Crabgrass, Large: Preemergence, 31 g ai/ha, scale 0 to 100, 0 no effect, 100 complete control
Summary of the method: as §2

sedge, umbrella = experiment: Test B flooded paddy test; format: in vivo, Cyperus difformis; settings: Flood, 250 g ai/ha; 0 to 100 scale where 0 is no effect and 100 is complete control
Summary of the method: (§3)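 Evaluation is visual, against untreated controls, 13 to 15 days after treatment. Before treatment, plants reached the 2-leaf stage; pots were then flooded 3 cm deep, compound was added to the water, and that level was maintained. Ratings run 0 to 100, with 100 meaning complete control.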

large (Lg) crabgrass [4] = experiment: Test A postemergence; format: in vivo, Digitaria sanguinalis; settings: 0 to 100 scale where 0 is no effect and 100 is complete control
Summary of the method: as §1

corn [5] = experiment: Test C postemergence; format: in vivo, Zea mays; settings: for Corn plant response rating / Plant response rating, Corn: scale 0 to 100 (0 no effect, 100 complete control); for Corn plant response rating: 13 to 15 days
Summary of the method: as §2

giant foxtail = experiment: Test C postemergence; format: in vivo, Setaria faberii; settings: for Foxtail, Giant plant response rating / Plant response rating, Foxtail, Giant: scale 0 to 100 (0 no effect, 100 complete control); for Foxtail, Giant plant response rating: 13 to 15 days
Summary of the method: as §2

corn [6] = experiment: Test A preemergence; format: in vivo, Zea mays; settings: for Plant response rating, Corn: 125 g ai/ha; for Corn plant response rating: 500 g ai/ha
Summary of the method: as §1

barnyardgrass [7] = experiment: Test B flooded paddy test; format: in vivo, Echinochloa crus-galli; settings: Flood, 250 g ai/ha; 0 to 100 scale where 0 is no effect and 100 is complete control
Summary of the method: as §3

waterhemp = experiment: Test C postemergence; format: in vivo, Amaranthus rudis
Summary of the method: as §2

[8] = 16 g ai/ha, postemergence, visual rating
[9] = 125 g ai/ha, postemergence, visual rating
[10] = 16 g ai/ha, scale 0 to 100 (0 no effect, 100 complete control)
[11] = 62 g ai/ha, scale 0 (no effect) to 100 (complete control)
[12] = 125 g ai/ha, scale 0 (no effect) to 100 (complete control)
[13] = 125 g ai/ha, postemergence, visual rating, scale 0 to 100 (0 no effect, 100 complete control)
[14] = Postemergence, 62 g ai/ha, scale 0 to 100 (0 no effect, 100 complete control)
[15] = 0 to 100 scale where 0 is no effect and 100 is complete control
[16] = 16 g ai/ha, postemergence, 0 is no effect, 100 is complete control
[17] = 31 g ai/ha, postemergence, visual rating
[18] = 31 g ai/ha, postemergence, visual rating, scale 0 to 100 (0 no effect, 100 complete control), 13 to 15 days

For N#Cc1cnn(-c2c(C#N)cccc2Oc2ncc(F)cn2)c1 [Compound 111], the “Plant response rating, Wheat” value (wheat; 125 g ai/ha, 0 to 100 scale where 0 is no effect and 100 is complete control) was 0, the “Chickweed plant response rating” value (chickweed; [8]) was 50 and the “Plant response rating, Chickweed” value (chickweed; [9]) was 95. The “Plant response rating, Chickweed” value (chickweed; Postemergence, 62 g ai/ha) was 75, the “Pigweed plant response rating” value (pigweed; [10]) was 75 and the “Pigweed plant response rating” value (pigweed; [11]) was 100. The “Pigweed plant response rating” value (pigweed; [12]) was 100, the “Plant response rating, Pigweed” value (pigweed; Preemergence, 31 g ai/ha, scale 0 to 100, 0 no effect, 100 complete control) was 95 and the “Barnyardgrass plant response rating” value (barnyardgrass [1]; 16 g ai/ha, postemergence, visual rating, 13 to 15 days) was 5. For the same compound, the “Plant response rating, Barnyardgrass” value (barnyardgrass [1]; [9]) was 35, the “Plant response rating, Barnyardgrass” value (barnyardgrass [1]; Postemergence, 31 g ai/ha, 13 to 15 days) was 5 and the “Plant response rating, Barnyardgrass” value (barnyardgrass [1]; Postemergence, 62 g ai/ha) was 5. For the same compound, the “Crabgrass, Large plant response rating” value (large (Lg) crabgrass [2]; [8]) was 5, the “Plant response rating, Crabgrass, Large” value (large (Lg) crabgrass [2]; [9]) was 35 and the “Plant response rating, Crabgrass, Large” value (large (Lg) crabgrass [2]; Postemergence, 62 g ai/ha) was 10. The “Plant response rating, Lambsquarters” value (lambsquarters; [13]) was 90, the “Plant response rating, Lambsquarters” value (lambsquarters; [14]) was 80 and the “Plant response rating, Wheat” value (wheat, winter; [13]) was 5. For the same compound, the “Plant response rating, Wheat” value (wheat, winter; [14]) was 0, the “Crabgrass, Large plant response rating” value (large (Lg) crabgrass [3]; [10]) was 98 and the “Crabgrass, Large plant response rating” value (large (Lg) crabgrass [3]; [11]) was 100. For the same compound, the “Crabgrass, Large plant response rating” value (large (Lg) crabgrass [3]; [12]) was 100, the “Plant response rating, Crabgrass, Large” value (large (Lg) crabgrass [3]) was 100 and the “Plant response rating, Sedge, Umbrella” value (sedge, umbrella) was 75. For the same compound, the “Plant response rating, Crabgrass, Large” value (large (Lg) crabgrass [4]; 125 g ai/ha) was 60, the “Plant response rating, Crabgrass, Large” value (large (Lg) crabgrass [4]; 500 g ai/ha) was 90 and the “Corn plant response rating” value (corn [5]; [8]) was 5. For the same compound, the “Plant response rating, Corn” value (corn [5]; [9]) was 15, the “Plant response rating, Corn” value (corn [5]; Postemergence, 62 g ai/ha) was 10 and the “Foxtail, Giant plant response rating” value (giant foxtail; [8]) was 20. For the same compound, the “Plant response rating, Foxtail, Giant” value (giant foxtail; [9]) was 65, the “Plant response rating, Foxtail, Giant” value (giant foxtail; Postemergence, 62 g ai/ha) was 35 and the “Plant response rating, Corn” value (corn [6]; [15]) was 20. For the same compound, the “Corn plant response rating” value (corn [6]; 0 to 100 scale, 0 no effect, 100 complete control, approx. 10 days) was 50, the “Plant response rating, Barnyardgrass” value (barnyardgrass [7]) was 0 and the “Plant response rating, Waterhemp” value (waterhemp; [13]) was 90. For the same compound, the “Plant response rating, Waterhemp” value (waterhemp; [14]) was 80.

FC(F)(F)c1cnn(-c2c(Cl)cccc2Oc2ncc(Cl)cn2)c1 [Compound 167] was tested, and the “Wheat plant response rating (0 to 100 scale)” value (wheat; 125 g ai/ha) was 0, the “Wheat plant response rating” value (wheat; 500 g ai/ha, 0 to 100 scale where 0 is no effect and 100 is complete control) was 50 and the “Plant response rating (0 to 100), Chickweed” value (chickweed; [16]) was 55. The “Chickweed plant response rating” value (chickweed; [17]) was 80, the “Plant response rating, Chickweed” value (chickweed; [9]) was 80 and the “Plant response rating, Chickweed” value (chickweed; Postemergence, 62 g ai/ha) was 70. The “Pigweed plant response rating” value (pigweed; [10]) was 100, the “Pigweed plant response rating” value (pigweed; [11]) was 100 and the “Pigweed plant response rating” value (pigweed; [12]) was 100. The “Plant response rating (0 to 100), Barnyardgrass” value (barnyardgrass [1]; [16]) was 5, the “Barnyardgrass plant response rating” value (barnyardgrass [1]; 31 g ai/ha, postemergence, visual rating, 13 to 15 days) was 5 and the “Plant response rating, Barnyardgrass” value (barnyardgrass [1]; [9]) was 10. The “Plant response rating, Barnyardgrass” value (barnyardgrass [1]; Postemergence, 62 g ai/ha) was 10, the “Plant response rating (0 to 100), Crabgrass, Large” value (large (Lg) crabgrass [2]; [16]) was 5 and the “Crabgrass, Large plant response rating” value (large (Lg) crabgrass [2]; [17]) was 5. For the same compound, the “Plant response rating, Crabgrass, Large” value (large (Lg) crabgrass [2]; [9]) was 10, the “Plant response rating, Crabgrass, Large” value (large (Lg) crabgrass [2]; Postemergence, 62 g ai/ha) was 5 and the “Plant response rating (0 to 100), Lambsquarters” value (lambsquarters; [16]) was 80. For the same compound, the “Lambsquarters plant response rating” value (lambsquarters; [18]) was 90, the “Plant response rating, Lambsquarters” value (lambsquarters; [13]) was 100 and the “Plant response rating, Lambsquarters” value (lambsquarters; [14]) was 98. For the same compound, the “Plant response rating (0 to 100), Wheat” value (wheat, winter; [16]) was 0, the “Wheat plant response rating” value (wheat, winter; [18]) was 0 and the “Plant response rating, Wheat” value (wheat, winter; [13]) was 5. The “Plant response rating, Wheat” value (wheat, winter; [14]) was 5, the “Crabgrass, Large plant response rating” value (large (Lg) crabgrass [3]; [10]) was 75 and the “Crabgrass, Large plant response rating” value (large (Lg) crabgrass [3]; [11]) was 100. The “Crabgrass, Large plant response rating” value (large (Lg) crabgrass [3]; [12]) was 100, the “Plant response rating, Crabgrass, Large” value (large (Lg) crabgrass [3]) was 98 and the “Plant response rating, Sedge, Umbrella” value (sedge, umbrella) was 98. For the same compound, the “Crabgrass, Large plant response rating” value (large (Lg) crabgrass [4]; 125 g ai/ha) was 80, the “Plant response rating, Crabgrass, Large” value (large (Lg) crabgrass [4]; 500 g ai/ha) was 90 and the “Plant response rating (0 to 100), Corn” value (corn [5]; [16]) was 5. For the same compound, the “Corn plant response rating” value (corn [5]; [17]) was 5, the “Plant response rating, Corn” value (corn [5]; [9]) was 15 and the “Plant response rating, Corn” value (corn [5]; Postemergence, 62 g ai/ha) was 10. The “Plant response rating (0 to 100), Foxtail, Giant” value (giant foxtail; [16]) was 10, the “Foxtail, Giant plant response rating” value (giant foxtail; [17]) was 10 and the “Plant response rating, Foxtail, Giant” value (giant foxtail; [9]) was 30. For the same compound, the “Plant response rating, Foxtail, Giant” value (giant foxtail; Postemergence, 62 g ai/ha) was 10, the “Plant response rating, Corn” value (corn [6]; [15]) was 10 and the “Corn plant response rating” value (corn [6]; [15]) was 40. For the same compound, the “Plant response rating, Barnyardgrass” value (barnyardgrass [7]) was 35, the “Plant response rating (0 to 100), Waterhemp” value (waterhemp; [16]) was 65 and the “Waterhemp plant response rating” value (waterhemp; [18]) was 75. For the same compound, the “Plant response rating, Waterhemp” value (waterhemp; [13]) was 98 and the “Plant response rating, Waterhemp” value (waterhemp; [14]) was 85.
